Data published in US10287234B2, “Triglyceride and use thereof” (NITTO PHARMACEUTICAL INDUSTRIES, LTD., priority 2015, dated 2019).

Test: State (liquid or solid) at standard temperature by visual observation
Format: physicochemical
Description: Whether compounds (I) of the present invention of Examples 1-3, trilinolein of Comparative Example 1 and HYA of Comparative Example 2 are liquid or solid at standard temperature (about 20° C.) was confirmed by visual observation.

| State at standard temperature (about 20° C.) | Compound |
| --- | --- |
| liquid | CCCCC/C=C\C/C=C\CCCCCCCC(=O)OCC(COC(=O)CCCCCCCCC(O)C/C=C\CCCCC)OC(=O)CCCCCCC/C=C\C/C=C\CCCCC (stereo not drawn) [Ex. 1, Di(cis, cis-9,12-octadecadienoyl)(10-hydroxy-cis-12-octadecenoyl)glycerol] |
| liquid | CCCCC/C=C\C/C=C\CCCCCCCC(=O)OC(COC(=O)CCCCCCCCC(O)C/C=C\CCCCC)COC(=O)CCCCCCCCC(O)C/C=C\CCCCC (stereo not drawn) [Ex. 2, Di(10-hydroxy-cis-12-octadecenoyl)(cis, cis-9,12-octadecadienoyl)glycerol] |
| liquid | CCCCC/C=C\C/C=C\CCCCCCCC(=O)OCC(COC(=O)CCCCCCC/C=C\C/C=C\CCCCC)OC(=O)CCCCCCC/C=C\C/C=C\CCCCC [compound 1, Trilinolein, reference compound] |
| solid | CCCCC/C=C\CC(O)CCCCCCCCC(=O)O (stereo not drawn) [compound 2, 10-Hydroxy-cis-12-octadecenoic Acid, reference compound] |
| liquid | Tri(10-hydroxy-cis-12-octadecenoyl)glycerol [Ex. 3] |
